From publication PMC8662641, “Site-Specific Labeling of Endogenous Proteins Using CoLDR Chemistry” (Journal of the American Chemical Society, 2021)

Key:
BTK = BTK (Homo sapiens, UniProt Q06187); parameters: BTK kinase domain was expressed and purified as previously reported; made in house; method as in Reddi et al., J. Am. Chem. Soc. 2021, 143 (13), 4979–4992; conditions: ref Reddi et al., J. Am. Chem. Soc. 2021, 143 (13), 4979–4992; cited from earlier work
BTK-1h = biological target: T1, BTK-1h (Homo sapiens, UniProt Q06187); assay: High-throughput screening with 1h-labeled BTK; type: binding
T1 construct: The BTK kinase domain was diluted to 2 μM in the buffer, and 2 μM 1h was added; made in house
Experimental: The collection was composed of BTK binding compounds obtained in our previous luminescence screen[37] (Data set S2). […] The resulting BTK-1h (50 μL) was added to the inhibitors.

[1] = Dataset S2A, 200 μM compound, BTK-1h, 32 °C, 10 min

T1 sequence (Q06187 402-655): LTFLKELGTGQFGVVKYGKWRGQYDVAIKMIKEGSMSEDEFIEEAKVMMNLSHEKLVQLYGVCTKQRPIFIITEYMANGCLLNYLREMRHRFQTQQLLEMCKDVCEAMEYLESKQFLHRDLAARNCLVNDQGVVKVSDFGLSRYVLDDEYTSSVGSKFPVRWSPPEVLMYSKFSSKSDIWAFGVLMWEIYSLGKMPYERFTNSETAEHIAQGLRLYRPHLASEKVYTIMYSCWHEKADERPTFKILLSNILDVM
BTK, sequence (Q06187 402-655 limits assumed): as the sequence (Q06187 402-655) above

C=CC(=O)Nc1cccc(Oc2nc(Nc3ccc(N4CCN(C)CC4)cc3OC)ncc2Cl)c1 [PCM-0095043-002]
BTK Inhibition reported in luminescence assay* (BTK): 89
FI (650)/FI (620) (BTK-1h; [1]): 0.9704
FI (BTK-1h)/FI (BTK-1h+Inhibitor) at 620 nm (BTK-1h; [1]): 1.038

COc1cccc(-n2c(=O)[nH]c3cc(Cl)n(-c4ccc(-c5cccc(OC)c5O)cc4)c3c2=O)c1 [PCM-0215555-001]
BTK Inhibition reported in luminescence assay* (BTK): 99.3
FI (650)/FI (620) (BTK-1h; [1]): 1.019
FI (BTK-1h)/FI (BTK-1h+Inhibitor) at 620 nm (BTK-1h; [1]): 1.0396

COC[C@H]1C[C@@H](c2ncc(-c3ccc4c(c3)COc3cc5c(ccc6[nH]c([C@@H]7CC[C@H](C)N7C(=O)[C@@H](NC(=O)OC)C(C)C)nc65)cc3-4)[nH]2)N(C(=O)[C@H](NC(=O)OC)c2ccccc2)C1 [PCM-0214920-001]
BTK Inhibition reported in luminescence assay* (BTK): 56
FI (650)/FI (620) (BTK-1h; [1]): 0.8577
FI (BTK-1h)/FI (BTK-1h+Inhibitor) at 620 nm (BTK-1h; [1]): 1.025

COc1c(-c2ccc3cc(NS(C)(=O)=O)ccc3c2)cc(-n2ccc(=O)[nH]c2=O)cc1C(C)(C)C [PCM-0216081-001]
BTK Inhibition reported in luminescence assay* (BTK): 73.4
FI (650)/FI (620) (BTK-1h; [1]): 0.9511
FI (BTK-1h)/FI (BTK-1h+Inhibitor) at 620 nm (BTK-1h; [1]): 1.031

Cl.O=C1Cc2cc(CCN3CCN(c4nsc5ccccc45)CC3)c(Cl)cc2N1 [PCM-0065598-003]
BTK Inhibition reported in luminescence assay* (BTK): 52.1
FI (650)/FI (620) (BTK-1h; [1]): 1.0625
FI (BTK-1h)/FI (BTK-1h+Inhibitor) at 620 nm (BTK-1h; [1]): 1.055

Cl[Te]1(Cl)(Cl)OCCO1.N [PCM-0215721-001]
BTK Inhibition reported in luminescence assay* (BTK): 98.6
FI (650)/FI (620) (BTK-1h; [1]): 1.1548
FI (BTK-1h)/FI (BTK-1h+Inhibitor) at 620 nm (BTK-1h; [1]): 1.038

COc1cc(C[C@H](C)[C@H](C)Cc2ccc3c(c2)OCO3)ccc1O [PCM-0216424-001]
BTK Inhibition reported in luminescence assay* (BTK): 68.7
FI (650)/FI (620) (BTK-1h; [1]): 0.9224
FI (BTK-1h)/FI (BTK-1h+Inhibitor) at 620 nm (BTK-1h; [1]): 1.025

CC(C)=CCc1cc2c(cc1O)O[C@H](c1ccc(O)cc1)CC2=O [PCM-0216180-001]
BTK Inhibition reported in luminescence assay* (BTK): 54.1
FI (650)/FI (620) (BTK-1h; [1]): 1.0081
FI (BTK-1h)/FI (BTK-1h+Inhibitor) at 620 nm (BTK-1h; [1]): 1.015

O=c1cc(-c2ccc(O)cc2)oc2cc(O)c(O)c(O)c12 [PCM-0216408-001, Scutellarein]
BTK Inhibition reported in luminescence assay* (BTK): 70.3
FI (650)/FI (620) (BTK-1h; [1]): 4.394
FI (BTK-1h)/FI (BTK-1h+Inhibitor) at 620 nm (BTK-1h; [1]): 1.081
FI (BTK-1h)/FI (BTK-1h+Inhibitor) at 620 nm (BTK-1h; Dataset S2B, 200 μM inhibitor added to BTK-1h (2 μm)): 4.394

COC1=CC(=O)c2ccccc2C1=O [PCM-0214886-001]
BTK Inhibition reported in luminescence assay* (BTK): 85.6
FI (650)/FI (620) (BTK-1h; [1]): 0.9979
FI (BTK-1h)/FI (BTK-1h+Inhibitor) at 620 nm (BTK-1h; [1]): 1.038

CNCc1ccc(C)c(NC(=O)c2ccc(Nc3nc(-c4ccccc4)c4ccccc4n3)cc2)c1 [PCM-0095748-002]
BTK Inhibition reported in luminescence assay* (BTK): 79.5
FI (650)/FI (620) (BTK-1h; [1]): 1.264
FI (BTK-1h)/FI (BTK-1h+Inhibitor) at 620 nm (BTK-1h; [1]): 1.088

Cl.O=C(c1ccc(OCCN2CCCCC2)cc1)c1c(-c2ccc(O)cc2)sc2cc(O)ccc12 [PCM-0065394-003]
BTK Inhibition reported in luminescence assay* (BTK): 85.5
FI (650)/FI (620) (BTK-1h; [1]): 1.378
FI (BTK-1h)/FI (BTK-1h+Inhibitor) at 620 nm (BTK-1h; [1]): 1.018

CC(=O)O/N=C1/C(c2c(O)[nH]c3cc(Br)ccc23)=Nc2ccccc21 [PCM-0215536-001]
BTK Inhibition reported in luminescence assay* (BTK): 60.7
FI (650)/FI (620) (BTK-1h; [1]): 1.013
FI (BTK-1h)/FI (BTK-1h+Inhibitor) at 620 nm (BTK-1h; [1]): 1.019

Cc1cnc(Nc2ccc(F)cc2Cl)nc1-c1c[nH]c(C(=O)N[C@H](CO)c2cccc(Cl)c2)c1 [PCM-0213398-002]
BTK Inhibition reported in luminescence assay* (BTK): 60
FI (650)/FI (620) (BTK-1h; [1]): 1.007
FI (BTK-1h)/FI (BTK-1h+Inhibitor) at 620 nm (BTK-1h; [1]): 1.033

C=CC(=O)N1CC[C@@H](Oc2nc(Nc3ccc(N4CCC(N5CCN(C)CC5)CC4)cc3)c(C(N)=O)nc2CC)C1 [PCM-0215788-001]
BTK Inhibition reported in luminescence assay* (BTK): 91
FI (650)/FI (620) (BTK-1h; [1]): 1.046
FI (BTK-1h)/FI (BTK-1h+Inhibitor) at 620 nm (BTK-1h; [1]): 1.04

C=CC(=O)Nc1cc(Nc2nccc(-c3c[nH]c4ccccc34)n2)c(OC)cc1N(C)CCN(C)C [PCM-0215489-001]
BTK Inhibition reported in luminescence assay* (BTK): 91.7
FI (650)/FI (620) (BTK-1h; [1]): 1.101
FI (BTK-1h)/FI (BTK-1h+Inhibitor) at 620 nm (BTK-1h; [1]): 1.031
